Test results taken from a melting point compilation (Tetko et al.; mined from patent text by program, amines drawn as free bases though some values may be those of a salt).

Compound	melting point [°C]
CCC1CCCC(C)C1=NC(C)COC (configuration not stated)	109 to 113
COC(=O)c1cc(NC(=O)OC(C)(C)C)c(N)cc1I	60 to 78
CCc1c(C(=O)C(N)=O)c2c(OCC(=O)O)cccc2n1Cc1ccccc1	230 to 234
CCCCCCCCCCCCCCCCOC(=O)c1cnccn1	53 to 54
Cc1cc(Cn2nnc(C(N)=O)c2N)cc(Cl)c1C(=O)c1ccc(C(F)(F)F)cc1	201 to 202
Cc1cccc(C(O)CNC2=NCCN2)c1 (configuration not stated)	121
CC1=C(C)C[C@H]2C(=O)CC(=O)[C@H]2C1	157 to 158
CC1=C(CC(=O)O)CN(C)N1	191 to 192
C=CCN1CCC2(c3cccc(O)c3)CCCC2C1 (configuration not stated)	106 to 108
OCC1OC(n2cnc3c(NC4CCCC4O)ncnc32)C(O)C1O (configuration not stated)	163 to 164
N#Cc1nn(C2CCCC2)c2nc(-c3ccncc3)nc(N)c12	219 to 221
N#CC(=Cc1ccc2c(c1)OCO2)CN1CCOCC1	82 to 84
O=C1CCCN1CC1CCN(c2ccnc(C(F)(F)F)n2)CC1	118 to 120
O=c1[nH]c2ccc(F)cc2c(=O)n1CCS	240 to 242
Cc1cc(CC(=O)N[C@H]2CC[C@H](CCN3CCC(c4cccc5c4CCO5)CC3)CC2)on1	188
Cn1cc(C(F)(F)F)c(C(=O)O)n1	174 to 175
O=C1Nc2ccc(Cl)cc2C1c1ncnc2c1cnn2C1CCCCC1 (configuration not stated)	300 to 305
CNc1nc(-c2cccc(N)c2)cs1	118 to 121
CC(C)OC(=O)c1n[nH]c2c(=O)[nH]c3cc(Cl)ccc3c(=O)c12	291
Nc1nc(OC(F)F)cc(OC(F)F)n1	67 to 69
Cc1cc(=O)oc2cc(N(C)C(=O)C(=O)O)ccc12	162 to 164
C=Cc1c[nH]c(=O)nc1N	> 290
CC(C)N1C(=O)N(c2ccccc2Cl)CSC1=NC(C)(C)C	88 to 89
CCCCCC(O)C1C(=O)NC2(C(O)C3C=CCCC3)C(=O)OC12C (configuration not stated)	144
O=CNc1ccccc1O	129
COc1cc(CCC[C@H]2OC(=O)NC2=O)ccc1OCc1nc(-c2ccco2)oc1C	122 to 123

Compound	melting point [°C]
Cc1cn2c(=O)c3c(Cl)cccc3nc2s1	235 to 236
Cc1cn(-c2ccc(N)c(C(F)(F)F)c2)c(C)n1	126 to 127
CNC1=NN(c2ccc(Cl)cc2)C(C)C1 (configuration not stated)	102 to 103
CC(C)(C)N1CCN(c2cc3c(cc2F)c(=O)c(C(=O)O)cn3C2CC2)CC1	257 to 260
COc1ccc(C2(C#Cc3ccnc(N)n3)CCC(=O)CC2)cc1OC1CCCC1	68 to 70
COC(=O)c1ccsc1N=C=S	63 to 65
CC(C)C(=S)Nc1ccc([N+](=O)[O-])c(C(F)(F)F)c1	74 to 76
CCCc1nn(C)c2c(=O)[nH]c(-c3cc(-c4nccn4C)ccc3OCC)nc12	199 to 202
N#Cc1cc2c(c(N3CCN(CCCCN4C(=O)c5ccccc5S4(=O)=O)CC3)c1)OCCO2	162 to 164
Cc1ccccc1COCC1OC(n2cc(C(F)(F)F)c(=O)[nH]c2=O)CC1O (configuration not stated)	178 to 179
CCCCc1ccc2c(=O)c(O)c(-c3cc(O)c(O)c(O)c3)oc2c1	142
COC(=O)N1CCCSC1=C[N+](=O)[O-]	93 to 95
CC(C)(C)c1cc(OCCCCC#N)cc(C(C)(C)C)c1	61 to 64
CCOC(=O)COc1ccc(-c2c(Cl)c(CN3C(=O)CCC3=O)nc3sc4c(c23)CCS(=O)(=O)C4)cc1	215 to 216
CCn1c(C)c(I)c(=O)n(CC)c1=O	159 to 162
COC(=O)C1CN=CN(C)C1 (configuration not stated)	93 to 95
CCOC(=O)C(OC)C(=O)Nc1cc(Cl)cc(Cl)c1 (configuration not stated)	89.5 to 92.5
CC(=O)NCc1ccc(/C=C/C(c2cc(Cl)cc(Cl)c2)C(F)(F)F)cc1Cl (configuration not stated)	127 to 128
CSc1sc(C(C)=O)cc1[N+](=O)[O-]	191 to 193
COc1c(CN2CCOCC2)cccc1-c1nc2c(N[C@H]3[C@@H](C(N)=O)[C@@H]4C=C[C@H]3C4)c(Cl)cnc2[nH]1	133 to 137
CCCCCCCCCCCCCCCCCCOCC(CO)NC(C)=O (configuration not stated)	82 to 85
O=C(Nc1ccccc1)OC(C1CC1)C1CC1	92 to 94
COc1cc2ncnc(N3CCN(C(=S)Nc4ccc(C(F)(F)F)cc4)CC3)c2cc1OC	117 to 119
CCCc1c(OCCCSc2nnc(SCC(=O)O)s2)ccc(C(C)=O)c1O	129 to 130
CCCN(C(C)C)C1COc2cccc(C(=O)NC(C)C)c2C1 (configuration not stated)	124
CCCCCCCCNC(=O)CCBr	48 to 55

Results, then the compound that gave them:

melting point [°C]	Compound
107 to 108	O=C1CC(=CN2CCOCC2)Oc2c(OCc3ccccc3)cccc21
189 to 191	Cc1ccnn1-c1ccc(NC(=O)c2ccc(Cl)cc2)cc1
139 to 142	CC(C)OC(=O)c1cc(-c2ccncc2)sc1-c1ccncc1
130 to 131	CCOC(=O)c1c(NCCC(=O)c2ccccc2)c2c(Cl)cc(Cl)cc2n1C(=O)OC(C)(C)C
105 to 106	COC(=O)c1ccc(CCNCC(O)c2ccccc2)cc1 (configuration not stated)
> 220	Cc1c(=O)n(Cc2ccc(C#N)cc2)c(=O)n2cc(C(=O)NCc3ccc(F)cc3)sc12
81	COC(=O)c1cccc(-c2noc(C)n2)c1
280 to 282	c1ccc(-c2ncc(-c3nnc(-c4ccccc4)[nH]3)cn2)cc1
120 to 125	COc1ccccc1CN[C@H]1CCCN(CCCc2ccccc2)[C@H]1c1ccccc1 (relative stereo)
215 to 216	NC(=O)Cc1ccc2c(c1)C(=O)Cc1cccnc1S2
94 to 97	CC(O)(C=Cc1ccc(S(=O)(=O)c2ccccc2)cc1)C(F)(F)F (configuration not stated)
235 to 236	C[C@@H](n1cnc2cc(C(N)=O)ccc2c1=O)[C@](O)(Cn1cncn1)c1ccc(F)cc1F
229 to 230	CCOP(=O)(OCC)c1ccc(NC(=O)C2Cc3c(cccc3C(C)C)C(=O)CS2(=O)=O)cc1 (configuration not stated)
97 to 111	Cc1cc(F)ccc1-c1ccc(S(=O)(=O)N2c3ccccc3CC2C(=O)NCCOc2cc(F)c(C(=O)O)c(F)c2)cc1 (configuration not stated)
69 to 70	c1ccc(Cn2cc3c(c2)OCCO3)cc1
103	CC(C)c1ccc(-c2nc(COc3ccc(OC(C)(C)C(=O)O)cc3)no2)cc1
171 to 173	COC(=O)Nc1nc2ccc(Sc3ccccc3)cn2c1C(=O)C(F)(F)F
142	CC(C)(C)OC(=O)N[C@@H](Cc1ccccc1)C(=O)NC1CCC(Nc2cccc3c2C(=O)c2ccccc2C3=O)CC1 (some centres not stated)
156	COc1cccc(OC)c1-c1ccc(C[C@H](NC(=O)c2c(Cl)cc(-c3ccn[nH]3)cc2Cl)C(=O)O)cc1
140	c1ccc(-c2ccnc3ncnn23)cc1
128	CC(C)c1cccc(S(=O)(=O)n2c(CCCC(=O)O)cc3cc(Cl)ccc32)c1
91 to 93	c1ccc(CSc2nc3sccn3n2)cc1
235 to 236	COc1cc(C=CC(=O)Nc2cnc3ccc(C)cc3c2-c2ccccc2Cl)cc(OC)c1O
104 to 106	CC(=O)NC(C)(C)c1ccc(CN2CCN(c3ccc(F)cc3)CC2)cc1
241 to 243	O=C1c2ccccc2C(=O)N1CC(=O)N1c2ccc(Cl)cc2N(Cc2ccccc2)C(=O)[C@H]2CCC[C@H]21 (relative stereo)

melting point [°C]	Compound
176 to 179	CN1CN(C)c2nc3n(Cc4ccccc4)c(=O)c(Cc4ccccc4)c(O)n3c2C1=O
252	CC(C)n1cc(-c2nc(C(N)=O)c(N)nc2-c2ccccc2F)ccc1=O
155 to 156	COC(=O)NN=C1CCc2ccccc21
180	Cc1ccc(S(=O)(=O)Nc2ccc3cccc(N4CCN(C)CC4)c3c2)cc1
100 to 101	COC(=O)c1ccc(OC)c(N(C(C)=O)c2cc(Cl)cc(Cl)c2)c1
134 to 144	CN=C(NS(=O)(=O)c1ccc(Cl)cc1)C1=NN(c2ccc(Cl)cc2)C(c2ccccc2)C1 (configuration not stated)
128 to 129	N#Cc1ccc2[nH]cc(CCNC(=O)OCc3ccccc3)c2c1
87 to 88	CCOC(=O)c1c(-c2ccccc2)c(Cc2cccc(F)c2C)cn1N
81 to 83	COC(=O)Cc1cc2c(cc1CC(=O)NCCc1cccc(OC)c1)OCO2
70 to 72	O=C1OC(c2ccccc2)=NC1Cc1ccccc1 (racemic)
83 to 87	CCCOc1ccc(OC)cc1C(N)=O
199 to 200	Cc1oc(-c2ccc(-c3ccccc3)cc2)nc1CCOc1ccc(C[C@H](OCC(F)(F)F)C(=O)O)c2ccccc12
180	Cc1cc(COc2nn3c(-c4ccccc4)nnc3cc2-c2ccccc2)no1
43.5 to 51.5	COc1ccc2c(C(=O)c3ccc(OC4CCCCC4N4CCCCCC4)cc3)c(-c3ccc(OCCN4CCCC4)cc3)sc2c1 (configuration not stated)
88 to 89	COC(=O)CC(C(=O)c1cccc(OCc2ccccc2)c1)c1ccccc1 (racemic)
197 to 199	CCOC(=O)C[C@H]1O[C@H](c2ccc(O)cc2OC)c2cc(Cl)ccc2N(CC(C)(C)C)C1=O (relative stereo)
129 to 130	CCC(C)COC(=O)Oc1ccc(-c2ccc(O)cc2)cc1 (configuration not stated)
163	COCc1cc2c(nc(C)n2C)c(O)c1CCC(=O)c1ccccc1C
85 to 86	c1ccc(COc2cccc(-n3cnnn3)c2)cc1
181 to 182	CC(=O)OCCc1c(-c2ccccc2)nc(N)n2ncnc12
184 to 190	O=C(NCC1(c2ccccc2)CCCCC1)Nc1ccc(I)cc1
216 to 219	CCC(C)(C)c1cc(-c2cccc(CC3SC(N4CCCC4)=NC3=O)c2)ccc1O (configuration not stated)
247 to 248	CCc1cc(Nc2ccc(-c3ccccc3C#N)cc2)n2nccc2n1
44 to 45	Cc1cncc(C)c1-c1c(C)cc(N=C(c2ccccc2)c2ccccc2)cc1C
116	CN1CCC(OC(=O)c2ccccc2Nc2ccnc3cc(C(F)(F)F)ccc23)CC1
